Target: T1, PDE9 (PDE9A) (Homo sapiens, UniProt O76083)
T1 construct: full-length recombinant human PDE9
Assay: PDE-Glo phosphodiesterase luminescence assay with cGMP substrate, recombinant human PDE9A
Type: biochemical

T1 sequence (O76083 whole entry): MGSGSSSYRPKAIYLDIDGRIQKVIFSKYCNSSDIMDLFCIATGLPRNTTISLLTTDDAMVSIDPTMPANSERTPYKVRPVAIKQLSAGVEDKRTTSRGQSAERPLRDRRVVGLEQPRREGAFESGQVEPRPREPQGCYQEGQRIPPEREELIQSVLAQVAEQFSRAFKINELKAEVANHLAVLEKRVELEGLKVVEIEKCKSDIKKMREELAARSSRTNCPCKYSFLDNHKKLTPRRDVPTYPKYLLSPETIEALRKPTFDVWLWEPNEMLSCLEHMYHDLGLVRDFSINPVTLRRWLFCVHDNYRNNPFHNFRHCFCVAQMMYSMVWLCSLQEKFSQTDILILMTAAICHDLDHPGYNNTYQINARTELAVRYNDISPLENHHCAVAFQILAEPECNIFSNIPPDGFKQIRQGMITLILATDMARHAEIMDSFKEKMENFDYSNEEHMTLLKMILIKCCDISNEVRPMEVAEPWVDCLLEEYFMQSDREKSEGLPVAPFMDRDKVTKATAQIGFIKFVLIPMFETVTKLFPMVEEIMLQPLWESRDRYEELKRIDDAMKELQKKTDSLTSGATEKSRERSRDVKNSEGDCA

SMILES: CC(C)=CCc1c2c(c3occ(-c4ccc(OS(C)(=O)=O)c(OS(C)(=O)=O)c4)c(=O)c3c1O)C=CC(C)(C)O2 [DB987]
- IC50: 5.35 nM
